Consider 21 compounds from patent US6051712A, “Piperidine derivatives having renin inhibiting activity” (Hoffmann-La Roche Inc., priority 1995, dated 2000).

pIC50: −log10 of the molar value. Where a name gives a salt, the structure may show the parent alone.

The first assay has as its target T1, human renin (Homo sapiens, UniProt P00797).
T1 sequence (P00797 67-406): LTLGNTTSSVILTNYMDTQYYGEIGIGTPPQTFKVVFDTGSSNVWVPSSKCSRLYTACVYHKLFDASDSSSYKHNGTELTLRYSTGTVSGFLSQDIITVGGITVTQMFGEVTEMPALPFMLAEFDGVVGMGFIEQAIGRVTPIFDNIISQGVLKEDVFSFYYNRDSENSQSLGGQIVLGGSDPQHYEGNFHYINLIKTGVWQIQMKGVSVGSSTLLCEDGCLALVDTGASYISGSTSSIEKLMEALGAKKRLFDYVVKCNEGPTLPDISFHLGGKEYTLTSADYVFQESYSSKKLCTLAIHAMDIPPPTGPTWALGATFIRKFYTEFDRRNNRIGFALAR
Briefly: In vitro test with pure human renin (angiotensin I production from human tetradecapeptide renin substrate, measured by RIA). Type of assay: biochemical.
Details: not given
The protocol:
In vitro test with pure human renin
The test is carried out in Eppendorf test tubes. The incubation mixture consists of (1) 100 μl of human renin in buffer A (0.1M sodium phosphate solution, pH 7.4, containing 0.1% bovine serum albumin, 0.1% sodium azide and 1 mM ethylenediaminetetraacetic acid), sufficient for a renin activity of 2-3 ng of angiotensin l/ml/hr.; (2) 145 μl of buffer A: (3) 30 μl of 10 mM human tetradecapeptide renin substrate (hTD) in 10 mM hydrochloric acid: (4) […] of dimethyl sulphoxide with or without inhibitor and (5) 10 μl of a 0.03 molar solution of hydroxyquinoline sulphate in water.
The samples are incubated for three hours at 37° C. and, respectively, 4° C. in triplicate. 2×100 μl samples per test tube are used in order to measure the production of angiotensin I via RIA (standard radioimmunoassay; clinical assay solid phase kit). […] The production of angiotensin I is determined by the difference between the test at 37° C, and that at 4° C.
The following controls are carried out:
(a) Incubation of hTD samples without renin and without inhibitor at 37° C. and 4° C. The difference between these two values gives the base value of the angiotensin I production.
(b) Incubation of hTD samples with renin, but without inhibitor at 37° C. and 4° C. The difference between these values gives the maximum value of the angiotensin I production.
In each sample the base value of the angiotensin I production is subtracted from the angiotensin I production which is determined. The difference between the maximum value and the base value gives the value of the maximum substrate hydrolysis (=100%) by renin.
The IC50 values are determined from a linear regression curve from a logit-log plot.
As for `c1ccc(-c2noc(COc3ccc([C@H]4CCNC[C@@H]4OCc4ccc5ccccc5c4)cc3)n2)cc1` (racemic) [E, (3RS,4RS)-3-(naphthalen-2-ylmethoxy)-4-[4-(3-phenyl-[1,2,4]oxadiazol-5-ylmethoxy)-phenyl]-piperidine trifluoroacetate], the pIC50 was 7.39.

In turn, `Fc1ccc([C@H]2C[C@@H]3CC[C@@H](N3)[C@@H]2OCc2cc(OCc3ccccc3)c3ccccc3c2)cc1` (racemic) [L, (1RS,2RS,3RS,5SR)-2-(4-benzyloxy-naphthalen-2-ylmethoxy)-3-(4-fluoro-phenyl)-8-aza-bicyclo[3.2.1]octane] showed a pIC50 of 5.51.

In turn, `c1ccc(COCCCOc2ccc([C@H]3CCNC[C@@H]3OCc3ccc4ccccc4c3)cc2)cc1` (racemic) [M, (3RS,4RS)-4-[4-(3-benzyloxy-propoxy)-phenyl]-3-(naphthalen-2-ylmethoxy)-piperidine] had a pIC50 of 8.10.

Staying with this assay, now noted: pure human renin, pH 7.4, three hours at 37° C. (less 4° C.), human tetradecapeptide substrate, angiotensin I by RIA; read-out: IC50 values (concentration of the inhibitor at which the enzymatic activity is inhibited by 50%).
`OCC(O)COc1ccc2ccc(CO[C@H]3CNCC[C@@H]3c3ccc(OCCCOCc4ccccc4)cc3)cc2c1` (mixture of isomers) [O, a mixture of (RS)- and (SR)-3-[7-[(3RS,4RS)-4-[4-(3-benzyloxy-propoxy)-phenyl]-piperidin-3-yloxymethyl]-naphthalen-2-yloxy]-propane-1,2-diol]: the pIC50 is 7.77.

Turning to `OCC(O)COCCOc1ccc2ccc(CO[C@H]3CNCC[C@@H]3c3ccc(OCCCOCc4ccccc4)cc3)cc2c1` (mixture of isomers) [P, a mixture of (RS)- and (SR)-3-[2-[7-[(3RS,4RS)-4-[4-(3-benzyloxy-propoxy)-phenyl]-piperidin-3-yloxymethyl]-naphthalen-2-yloxy]-ethoxy]-propane-1,2-diol hydrochloride (1:1)], the pIC50 is 8.22.

On to `OCC(O)COCc1ccc2ccc(CO[C@H]3CNCC[C@@H]3c3ccc(OCCCOCc4ccccc4)cc3)cc2c1` (mixture of isomers) [T, a mixture of (3RS,4RS)- and (3SR,4SR)-4-[4-(3-benzyloxy-propoxy)-phenyl]-3-[7-[(RS)-2,3-dihydroxy-propoxymethyl]-naphthalen-2-ylmethoxy]-piperidine], for which the pIC50 was 8.30.

For `OCC(O)COCc1ccc2cc(CO[C@H]3CNCC[C@@H]3c3ccc(OCCCOCc4ccccc4)cc3)ccc2c1` (mixture of isomers) [U, a mixture of (3RS,4RS)- and (3SR,4SR)-4-[4-(3-benzyloxy-propoxy)-phenyl]-3-[6-[(RS)-2,3-dihydroxy-propoxymethyl]-naphthalen-2-ylmethoxy]-piperidine], the pIC50 is 7.62.

As for `O=C(OCCOc1ccc([C@H]2CCNC[C@@H]2OCc2ccc3ccccc3c2)cc1)c1cccs1` (racemic) [A, (3RS,4RS)-2-[4-(3-naphthalen-2-ylmethoxy-piperidin-4-yl)-phenoxy]-ethylthiophene-2-carboxylate hydrochloride], the pIC50 was 7.96.

With `COc1ccccc1COc1cc(CO[C@H]2CNCC[C@@H]2c2ccc(OCCOC(=O)c3ccccc3)cc2)cc2ccccc12` (racemic) [C, (3RS,4RS)-2-[4-[3-[4-(2-methoxy-benzyloxy)-naphthalen-2-ylmethoxy]-piperidin-4-yl]-phenoxy]-ethyl benzoate hydrochloride], the pIC50 is 7.15.

Turning to `CCC[C@@H]1CNC[C@H](OCc2cc(OCc3ccccc3)c3ccccc3c2)[C@H]1c1ccc(F)cc1` (racemic) [Compound I, (3RS,4RS,5SR)-3-(4-benzyloxy-naphthalen-2-ylmethoxy)-4-(4-fluoro-phenyl)-5-propyl-piperidine], the pIC50 is 6.50.

With `c1ccc(COCCCOc2ccc([C@H]3CCNC[C@@H]3OCc3ccc4c(c3)OCCO4)cc2)cc1` (racemic) [D, (3RS,4RS)-4-[4-(3-benzyloxy-propoxy)-phenyl]-3-(2,3-dihydro-benzo[1,4]dioxin-6-ylmethoxy)-piperidine], the pIC50 is 7.40.

With `c1ccc(-c2cc(COc3ccc([C@H]4CCNC[C@@H]4OCc4ccc5ccccc5c4)cc3)on2)cc1` (racemic) [F, (3RS,4RS)-3-(naphthalen-2-ylmethoxy)-4-[4-(3-phenyl-isoxazol-5-ylmethoxy)-phenyl]-piperidine trifluoroacetate], the pIC50 was 7.24.

Turning to `c1ccc(SCCCc2ccc([C@H]3CCNC[C@@H]3OCc3ccc4ccccc4c3)cc2)cc1` (racemic) [G, (3RS,4RS)-3-(naphthalen-2-ylmethoxy)-4-[4-(3-phenylsulphanyl-propyl)-phenyl]-piperidine], the pIC50 is 7.48.

In the case of `Oc1cc(CO[C@H]2CNCC[C@@H]2c2ccc(CCSc3nc4ccccc4s3)cc2)cc2ccccc12` (racemic) [H, (3RS,4RS)-3-[4-[4-[2-(benzothiazol-2-ylsulphanyl)-ethyl]-phenyl]-piperidin-3-yloxymethyl]-naphthalen-1-ol], the pIC50 was 7.14.

In the case of `COC[C@@H]1CNC[C@H](OCc2ccc3ccccc3c2)[C@H]1c1ccc(COCc2ccccc2)cc1` (racemic) [J, (3SR,4RS,5RS)-4-(4-benzyloxymethyl-phenyl)-3-methoxymethyl-5-(naphthalen-2-ylmethoxy)-piperidine], the pIC50 was 7.77.

Take `O=C(Cc1ccc2ccccc2c1)[C@H]1CNC[C@@H](COCCN2CCOCC2)[C@@H]1c1ccc(OCCCOCc2ccccc2)cc1` (racemic) [KK, 1-[(3RS,4SR,5SR)-4-[4-(3-benzyloxy-propoxy)-phenyl]-5-(2-morpholin-4-yl-ethoxymethyl)-piperidin-3-yl]-2-naphthalen-2-yl-ethanone]: the pIC50 is 7.92.

With `c1ccc(COCCCOc2ccc([C@H]3CCNC[C@@H]3OCc3ccc4ccc(OCCN5CCOCC5)cc4c3)cc2)cc1` (racemic) [N, 4-[2-[7-[(3RS,4RS)-4-[4-(3-benzyloxy-propoxy)-phenyl]-piperidin-3-yloxymethyl]-naphthalen-2-yloxy]-ethyl]-morpholine hydrochloride (1:2)], the pIC50 is 7.92.

With `COc1ccccc1COCCCOc1ccc([C@H]2CCNC[C@@H]2OCc2ccc3cccnc3c2)cc1` (racemic) [OO, (3RS,4RS)-4-[4-[3-(2-methoxy-benzyloxy)-propoxy]-phenyl]-3-(quinolin-7-ylmethoxy)-piperidine], the pIC50 was 8.22.

Consider `OCCOCc1ccc2ccc(CO[C@H]3CNCC[C@@H]3c3ccc(OCCCOCc4ccccc4)cc3)cc2c1` (racemic) [PP, 2-(7-{(3RS,4RS)-4-[4-(3-benzyloxy-propoxy)-phenyl]-piperidin-3-yloxymethyl}-naphthalen-2-ylmethoxy)-ethanol], for which the pIC50 was 8.70.

For `CN1CCN(CCOc2ccc3ccc(CO[C@H]4CNCC[C@@H]4c4ccc(OCCCOCc5ccccc5)cc4)cc3c2)CC1` (racemic) [Q, 1-[2-[7-[(3RS,4RS)-4-[4-(3-benzyloxy-propoxy)-phenyl]-piperidin-3-yloxymethyl]-naphthalen-2-yloxy]-ethyl]-4-methyl-piperazine hydrochloride (1:3)], the pIC50 was 8.30.

As for `CN(C)Cc1ccc2ccc(CO[C@H]3CNCC[C@@H]3c3ccc(OCCCOCc4ccccc4)cc3)cc2c1` (racemic) [QQ, (7-{(3RS,4RS)-4-[4-(3-benzyloxy-propoxy)-phenyl]-piperidin-3-yloxymethyl}-naphthalen-2-ylmethyl)-dimethyl-amine], the pIC50 was 8.70.
